System: blood coagulation
Test: Permittivity measurement over time of blood samples with calcium chloride added (coagulation start-indicating parameter)
Assay type: cell-based
Method: Experimental Example 2 was performed to determine whether and how the results of measurement of an electrical characteristic differ between a case using a compound having an inhibitory effect on blood sedimentation and having no influence on the electrical characteristic parameter used for analysis and a case using a compound having an influence on the electrical characteristic parameter. In this experimental example, permittivity was used as an example of the electrical characteristic. In addition, a coagulation start-indicating parameter for use in blood coagulation analysis was focused on as an example of the electrical characteristic parameter for use in analysis. Furthermore, in Experimental Example 2, measurement was performed on blood samples containing citric acid added as an anticoagulant with calcium chloride added as a blood coagulation […].
Carboxymethyl dextran as an example of the blood sedimentation inhibitor was dissolved at a concentration of 10% w/v in PBS. The carboxymethyl dextran-containing PBS solution was added in an amount of 10% to a whole blood sample with a high blood sedimentation rate, so that a sample of Example 3 was obtained.
A control sample was prepared by adding a blood sedimentation inhibitor-free PBS in an amount of 10% to the same whole blood sample as in Example 3.
Betaine was dissolved at a concentration of 10% w/v in PBS. The resulting blood sedimentation inhibitor-containing PBS solution was added in an amount of 10% to a blood sample with sedimentation abnormalities, prepared by a method similar to that in Experimental Example 1, so that a sample of Comparative Example 3 was obtained.
A control sample was prepared by adding a blood sedimentation inhibitor-free PBS in an amount of 10% to a blood sample with sedimentation abnormalities, prepared by a method similar to that in Experimental Example 1.
The permittivity of 180 μL of each of the samples of Example 3, Control for Example, Comparative Example 3, and Control for Comparative Example, prepared as described above, was measured at a frequency of 1 MHz over time.

In the case of C[N+](C)(C)CC(=O)O [Comparative Example 3, Betaine], the “analysis of blood coagulation start time using a parameter indicating the time at which coagulation started” value (10% w/v in PBS added in an amount of 10%, citric acid plus calcium chloride, permittivity at 1 MHz) is reported as “impossible to extract any parameter indicating the coagulation start time”, the “signal behavior compared with the control sample” value (10% w/v in PBS added in an amount of 10%, citric acid plus calcium chloride, permittivity at 1 MHz, FIGS. 6 and 7) is reported as “completely different from that of the control sample” and the “adverse effect on the analysis (usability as blood sedimentation inhibitor)” value (blood coagulation analysis based on permittivity) is reported as “has an adverse effect on the analysis”. The “inhibitory effect on blood sedimentation (in words)” value (suggested from results of Experimental Example 2) was “have an inhibitory effect on blood sedimentation”.
